Source: ChEMBL document CHEMBL1145489, “Isoniazid induces its own resistance in nonreplicating Mycobacterium tuberculosis” (Antimicrob Agents Chemother, 2007)

Columns and labels:
[1] = system: Mycobacterium tuberculosis; assay: Antimicrobial activity against Mycobacterium tuberculosis TB7 isolate at 0.1 ug/ml after 3 weeks; format: functional
[2] = system: Mycobacterium tuberculosis; assay: Antimicrobial activity against Mycobacterium tuberculosis TB20 isolate at 0.1 ug/ml after 2 weeks; format: functional
[3] = system: Mycobacterium tuberculosis; assay: Antimicrobial activity against Mycobacterium tuberculosis TB20 isolate at 0.1 ug/ml after 4 weeks; format: functional
[4] = system: Mycobacterium tuberculosis; assay: Antimicrobial activity against Mycobacterium tuberculosis H37Rv at 0.4 ug/ml after 1 week by […] method; format: functional
[5] = system: Mycobacterium tuberculosis; assay: Antimicrobial activity against Mycobacterium tuberculosis TB7 isolate at 0.4 ug/ml after 1 week; format: functional
[6] = system: Mycobacterium tuberculosis; assay: Antimicrobial activity against Mycobacterium tuberculosis TB19 isolate at 0.4 ug/ml after 4 weeks; format: functional
[7] = system: Mycobacterium tuberculosis; assay: Antimicrobial activity against Mycobacterium tuberculosis H37Rv at 0.4 ug/ml after 3 weeks by […] method; format: functional
[8] = system: Mycobacterium tuberculosis; assay: Antimicrobial activity against Mycobacterium tuberculosis H37Rv at 0.4 ug/ml after 4 weeks by […] method; format: functional
[9] = system: Mycobacterium tuberculosis; assay: Antimicrobial activity against Mycobacterium tuberculosis TB19 isolate at 0.4 ug/ml after 1 week; format: functional
[10] = system: Mycobacterium tuberculosis; assay: Antimicrobial activity against Mycobacterium tuberculosis TB20 isolate at 0.4 ug/ml after 4 weeks; format: functional
[11] = system: Mycobacterium tuberculosis; assay: Antimicrobial activity against Mycobacterium tuberculosis H37Rv at 0.1 ug/ml after 4 weeks by […] method; format: functional
[12] = system: Mycobacterium tuberculosis; assay: Antimicrobial activity against Mycobacterium tuberculosis H37Rv at 0.4 ug/ml after 2 weeks by […] method; format: functional
[13] = system: Mycobacterium tuberculosis; assay: Antimicrobial activity against Mycobacterium tuberculosis TB7 isolate at 0.4 ug/ml after 4 weeks; format: functional
[14] = Stability in BACTEC medium at 37 degC upto 4 weeks; format: physicochemical; conditions: 672 h
[15] = system: Mycobacterium tuberculosis; assay: Antimicrobial activity against Mycobacterium tuberculosis TB19 isolate at 0.1 ug/ml after 3 weeks; format: functional
[16] = system: Mycobacterium tuberculosis; assay: Antimicrobial activity against Mycobacterium tuberculosis TB7 isolate at 0.1 ug/ml after 1 week; format: functional
[17] = system: Mycobacterium tuberculosis; assay: Antimicrobial activity against Mycobacterium tuberculosis TB20 isolate at 0.1 ug/ml after 3 weeks; format: functional
[18] = system: Mycobacterium tuberculosis; assay: Antimicrobial activity against Mycobacterium tuberculosis TB20 isolate at 0.4 ug/ml after 1 week; format: functional
[19] = system: Mycobacterium tuberculosis; assay: Antimicrobial activity against Mycobacterium tuberculosis TB19 isolate at 0.4 ug/ml after 3 weeks; format: functional
[20] = system: Mycobacterium tuberculosis; assay: Antimicrobial activity against Mycobacterium tuberculosis TB19 isolate at 0.1 ug/ml after 2 weeks; format: functional
[21] = system: Mycobacterium tuberculosis; assay: Antimicrobial activity against Mycobacterium tuberculosis TB20 isolate at 0.1 ug/ml after 1 week; format: functional
[22] = system: Mycobacterium tuberculosis; assay: Antimicrobial activity against Mycobacterium tuberculosis TB19 isolate at 0.4 ug/ml after 2 weeks; format: functional
[23] = system: Mycobacterium tuberculosis; assay: Antimicrobial activity against Mycobacterium tuberculosis TB19 isolate at 0.1 ug/ml after 1 week; format: functional
[24] = system: Mycobacterium tuberculosis; assay: Antimicrobial activity against Mycobacterium tuberculosis TB7 isolate at 0.1 ug/ml after 4 weeks; format: functional
[25] = system: Mycobacterium tuberculosis; assay: Antimicrobial activity against Mycobacterium tuberculosis H37Rv at 0.1 ug/ml after 3 weeks by […] method; format: functional
[26] = system: Mycobacterium tuberculosis; assay: Antimicrobial activity against Mycobacterium tuberculosis TB20 isolate at 0.4 ug/ml after 2 weeks; format: functional
[27] = system: Mycobacterium tuberculosis; assay: Antimicrobial activity against Mycobacterium tuberculosis TB20 isolate at 0.4 ug/ml after 3 weeks; format: functional
[28] = system: Mycobacterium tuberculosis; assay: Antimicrobial activity against Mycobacterium tuberculosis H37Rv at 0.1 ug/ml after 1 week by […] method; format: functional
[29] = system: Mycobacterium tuberculosis; assay: Antimicrobial activity against Mycobacterium tuberculosis H37Rv at 0.1 ug/ml after 2 weeks by […] method; format: functional
[30] = system: Mycobacterium tuberculosis; assay: Antimicrobial activity against Mycobacterium tuberculosis TB19 isolate at 0.1 ug/ml after 4 weeks; format: functional
[31] = system: Mycobacterium tuberculosis; assay: Antimicrobial activity against Mycobacterium tuberculosis TB7 isolate at 0.4 ug/ml after 2 weeks; format: functional
[32] = system: Mycobacterium tuberculosis; assay: Antimicrobial activity against Mycobacterium tuberculosis TB7 isolate at 0.1 ug/ml after 2 weeks; format: functional
[33] = system: Mycobacterium tuberculosis; assay: Antimicrobial activity against Mycobacterium tuberculosis TB7 isolate at 0.4 ug/ml after 3 weeks; format: functional
[34] = system: Mycobacterium tuberculosis; assay: Antimicrobial activity against Mycobacterium tuberculosis H37Rv at 2 ug/ml after 2 weeks by […] method; format: functional
[35] = system: Mycobacterium tuberculosis; assay: Antimicrobial activity against Mycobacterium tuberculosis H37Rv at 2 ug/ml after 4 weeks by […] method; format: functional
[36] = system: Mycobacterium tuberculosis; assay: Antimicrobial activity against Mycobacterium tuberculosis H37Rv at 2 ug/ml after 1 week by […] method; format: functional
[37] = system: Mycobacterium tuberculosis; assay: Antimicrobial activity against Mycobacterium tuberculosis H37Rv at 2 ug/ml after 3 weeks at by […] method; format: functional

For `NNC(=O)c1ccncc1` [ISONIAZID], the CFU [1] was 2.5 10^4/ml, the CFU [2] was 1.4 10^4/ml and the CFU [3] was 2.5 10^4/ml. For the same compound, the CFU [4] was 55 mL⁻¹, the CFU [5] was 0 mL⁻¹ and the CFU [6] was 4.8 10^4/ml. The CFU [7] was 1.45 10^4/ml, the CFU [8] was 1.32 10^4/ml and the CFU [9] was 0 mL⁻¹. For the same compound, the CFU [10] was 8 10^4/ml, the CFU [11] was 1.22 10^5/ml and the CFU [12] was 3.6 10^3/ml. For the same compound, the CFU [13] was 1.1 10^5/ml, the Stability [14] was “Stable” and the CFU [15] was 4.8 10^3/ml. The CFU [16] was 1.7 10^5/ml, the CFU [17] was 1.6 10^4/ml and the CFU [18] was 40 mL⁻¹. The CFU [19] was 3.4 10^4/ml, the CFU [20] was 1.1 10^3/ml and the CFU [21] was 2.4 10^2/ml. For the same compound, the CFU [22] was 2 10^2/ml, the CFU [23] was 25 mL⁻¹ and the CFU [24] was 7.9 10^4/ml. The CFU [25] was 2.4 10^4/ml, the CFU [26] was 1.3 10^4/ml and the CFU [27] was 7.5 10^4/ml. For the same compound, the CFU [28] was 1.2 10^3/ml, the CFU [29] was 3.1 10^3/ml and the CFU [30] was 7 10^3/ml. The CFU [31] was 5.6 10^2/ml, the CFU [32] was 7.6 10^3/ml and the CFU [33] was 1.2 10^4/ml.

`CO[C@H]1/C=C/O[C@@]2(C)Oc3c(C)c(O)c4c(O)c(c(/C=N/N5CCN(C)CC5)c(O)c4c3C2=O)NC(=O)/C(C)=C\C=C\[C@H](C)[C@H](O)[C@@H](C)[C@@H](O)[C@@H](C)[C@H](OC(C)=O)[C@@H]1C` [RIFAMPIN] gave a CFU [34] of 0 mL⁻¹, a CFU [35] of 0 mL⁻¹ and a CFU [36] of 0 mL⁻¹. It also gave a CFU [37] of 0 mL⁻¹.
